Measured values as given in US9458085B2, “Formulations” (priority 2010, dated 2016).
Structures can show the parent of a compound that is named as a salt. Where two headings read alike, the source gives them in different places.

How the values were obtained:
[1] = system: Polygonum Convolvulus (POLCO); assay: Glass house adjuvant test with mesotrione, weed kill; assay type: in vivo; details: mesotrione 45 g/ha + adjuvant 0.2% v/v in spray-tank, mean (standard deviation), 3 replicates
[2] = system: Brachiaria Decumbens (BRADE); assay: as above; assay type: in vivo; details: mesotrione 45 g/ha + adjuvant 0.2% v/v in spray-tank, mean (standard deviation), 3 replicates
Avena Fatua (AVEFA) = assay: Glass house adjuvant test with pinoxaden, weed kill; assay type: in vivo; details: pinoxaden 7.5 g/ha + adjuvant 0.2% by volume in spray-tank, mean (standard deviation), 3 replicates
Method: (§1) The weed species Setaria Viridis (SETVI), Lolium Perenne (LOLPE), Avena Fatua (AVEFA) and Alopecurus Myosuroides (ALOMY) were grown under glass house conditions and sprayed with the herbicide pinoxaden at a rate of 7.5 grams of pesticide per hectare. Weeds were treated with pinoxaden in the absence of (E)-but-2-enedioic acid dibutyl ester (as a control) and also with (E)-but-2-enedioic acid dibutyl ester added to the spray-tank at a concentration of 0.2% by volume. After both 14 and 21 days the efficacy of the herbicide was assessed based on the percentage of the weeds that had been killed. Three replicates were used in all cases. The average percentage of weeds killed is quoted in Table 5 for each weed species either with the adjuvant or without (control). Results have been averaged across three replicates. The standard deviation for each result is shown in brackets after the result.

Setaria Viridis (SETVI) = assay: as above; assay type: in vivo; details: pinoxaden 7.5 g/ha + adjuvant 0.2% by volume in spray-tank, mean (standard deviation), 3 replicates
Method: as §1

Lolium Perenne (LOLPE) = assay: as above; assay type: in vivo; details: pinoxaden 7.5 g/ha + adjuvant 0.2% by volume in spray-tank, mean (standard deviation), 3 replicates
Method: as §1

[3] = system: Alopecurus Myosuroides (ALOMY); assay: as above; assay type: in vivo; details: pinoxaden 7.5 g/ha + adjuvant 0.2% by volume in spray-tank, mean (standard deviation), 3 replicates
Method: as §1

[4] = Water solubility of solvents at 25° C. (saturated solution, chromatographic analysis); assay type: physicochemical
Method: Typically, solvents which have aqueous solubilities of about (or at least) 0.1% w/w [at the relevant temperature] can dissolve appreciably in agrochemical spray tanks under normal dilution conditions [for example, temperatures of from just above freezing to 35° C.]. […] Solvents such as acetophenone are normally formulated with an oil of much lower water solubility. […] Table 2 provides water solubilities for a number of solvents at 25° C. Saturated solutions of each solvent in deionised water were prepared by leaving excess solvent in contact with water for a period of at least two weeks. After this time a sample of the water was analysed chromatographically to determine the concentration of solvent present.

[5] = system: Amaranthus Tuberculatus (AMATU); assay: Glass house adjuvant test with mesotrione, weed kill; assay type: in vivo; details: mesotrione 45 g/ha + adjuvant 0.2% v/v in spray-tank, mean (standard deviation), 3 replicates
Method: The weed species Polygonum Convolvulus, Digitaria Sanguinalis, Brachiaria Decumbens and Amaranthus Tuberculatus were grown under glass house conditions and sprayed with the herbicide mesotrione at rate of 45 grams of pesticide per hectare. Weeds were treated with the mesotrione in the absence of (E)-but-2-enedioic acid dibutyl ester (as a control) and also with (E)-but-2-enedioic acid dibutyl ester added to the spray-tank at a concentration of 0.2% v/v. After 14 and 21 days the efficacy of the herbicide was assessed based on the percentage of the weeds that had been killed. Three replicates were used in all cases. The performance of the solvent was assessed by averaging the three replicates at each time period and for each weed. The standard deviation for each result is shown in brackets after the average percentage weed kill.

[6] = system: Digitaria Sanguinalis (DIGSA); assay: as above; assay type: in vivo; details: mesotrione 45 g/ha + adjuvant 0.2% v/v in spray-tank, mean (standard deviation), 3 replicates
[7] = Solubility of chlorothalonil in solvents at 20° C.; assay type: physicochemical
[8] = solvent in deionised water, 25° C., contact at least two weeks

With `CCCCOC(=O)/C=C/C(=O)OCCCC` [(E)-But-2-enedioic acid dibutyl ester] the “average percentage weed kill, POLCO” value ([1]; 14 days after application) was 80(10) %, the “average percentage weed kill, POLCO” value ([1]; 21 days after application) was 80(10) % and the “average percentage weed kill, BRADE” value ([2]; 14 days after application) was 43.3(5.8) %. The “average percentage weed kill, BRADE” value ([2]; 21 days after application) was 40(0) %, the “average percentage of weeds killed, AVEFA” value (Avena Fatua (AVEFA); 14 days after application) was 20(10) % and the “average percentage of weeds killed, AVEFA” value (Avena Fatua (AVEFA); 21 days after application) was 16.7(5.8) %. For the same compound, the “average percentage of weeds killed, SETVI” value (Setaria Viridis (SETVI); 14 days after application) was 20(0) %, the “average percentage of weeds killed, SETVI” value (Setaria Viridis (SETVI); 21 days after application) was 20(10) % and the “average percentage of weeds killed, LOLPE” value (Lolium Perenne (LOLPE); 14 days after application) was 13.3(5.8) %. For the same compound, the “average percentage of weeds killed, LOLPE” value (Lolium Perenne (LOLPE); 21 days after application) was 6.7(5.8) %, the “average percentage of weeds killed, ALOMY” value ([3]; 14 days after application) was 20(17.3) % and the “average percentage of weeds killed, ALOMY” value ([3]; 21 days after application) was 33.3(15.3) %. The “% water solubility [by weight at 25° C.]” value [4] was 0.04 % by weight, the “average percentage weed kill, AMATU” value ([5]; 14 days after application) was 76.7(5.8) % and the “average percentage weed kill, AMATU” value ([5]; 21 days after application) was 94(3.6) %. For the same compound, the “average percentage weed kill, DIGSA” value ([6]; 14 days after application) was 36.7(2.9) % and the “average percentage weed kill, DIGSA” value ([6]; 21 days after application) was 41.7(7.6) %.
With `CC(=O)c1ccccc1` [Acetophenone (methyl phenyl ketone), methyl phenyl ketone] the “% water solubility [by weight at 25° C.]” value [4] was 0.9 % by weight.
With `OCc1ccccc1` [Benzyl alcohol, benzene methanol, Benzyl alcohol] the “% water solubility [by weight at 25° C.]” value [4] was 4.4 % by weight.
With `C1CCC2CCCCC2C1` (stereo not drawn) [Decalin, decahydronaphthalene] the “% water solubility [by weight at 25° C.]” value [4, 8] was 0.7 % by weight.
For `CCOC(=O)/C=C/C(=O)OCC` [Diethyl fumarate], the “% water solubility [by weight at 25° C.]” value [4] was 0.8 % by weight.
In the case of `C=C(C)[C@H]1CC=C(C)CC1` [Dipentene, limonene], the “Chlorothalonil solubility in the solvent” value [7] is reported as 0.18 percentage w/w and the “% water solubility [by weight at 25° C.]” value [4, 8] is reported as 0.098 % by weight.
With `CCCCCCCCCCCCc1ccccc1` [Dodecylbenzene, 1-phenyldodecane] the “% water solubility [by weight at 25° C.]” value [4] was 0.000026 % by weight.
With `c1ccc2c(c1)CCCC2` [Tetralin, tetrahydronaphthalene] the “% water solubility [by weight at 25° C.]” value [4, 8] was 0.18 % by weight.
In the case of `CC(=O)OCC(COC(C)=O)OC(C)=O` [Triacetin (glycerol triacetate), glycerol triacetate], the “% water solubility [by weight at 25° C.]” value [4] is reported as 7.7 % by weight.
With “dimethyl heptamide [Genagen ™ 4166 (dimethyl heptamide)]” the “% water solubility [by weight at 25° C.]” value [4, 8] was 0.7 % by weight.
